In test [1] the target is E. coli DNA gyrase GyrA mutant EcS83L (Escherichia coli, UniProt P0AES4+P0AES6, S83L). The test is described as follows: Supercoiling inhibition assay, GyrA EcS83L mutant gyrase. Type of test: biochemical. Conditions: for Resistance of EcS83L mutant enzyme in supercoiling inhibition: EcS83L compared to wt. How it is done: (§1) Supercoiling reactions were carried out as described previously ([24]) with minor adjustments. A total of 500 ng of relaxed pBR322 plasmid was used as a substrate for each 30 μl reaction. The amount of DNA gyrase (A2B2) added was normalized by testing various dilutions of the stock (A2B2 containing 0.5 mg/ml of each subunit) without compound. The amount sufficient to supercoil 50% of the substrate was then used for the testing of compounds. See Supplementary Figure S1 for details. This ensured a limiting amount of enzyme for every mutant tested. The individual gyrase subunits were either prepared in the lab as described previously ([25]) or purchased from Inspiralis.
(§2) The activity of tricyclic and bicyclic IPYs (Figure 1) was tested in a supercoiling inhibition assay (Table 1) on wild-type (wt) E. coli DNA gyrase and GyrA mutants EcS83L (SaS84), EcD87A (SaE88) and EcD82N (SaD83). These residues are located in the ‘Quinolone-Resistance-Determining-Region’, frequently found mutated in resistant clinical isolates ([18],[35–38]). Based on the structures solved of FQs bound to DNA gyrase and topo IV, it has been established that both residues EcS83 and EcD87 are involved in a water–metal–ion bridge that is important for the stabilization of the ternary complex, explaining the resistance to FQs observed when these residues are mutated ([15–16],[23],[29],[39]).

In test [2] the target is T1, wild-type E. coli DNA gyrase (Escherichia coli, UniProt P0AES4+P0AES6). Kind of test: biochemical. Particulars: relaxed pBR322 substrate, read-out: Supercoiling IC50. As to the method: as §1
The target of test [3] is E. coli DNA gyrase GyrA mutant EcD82N (Escherichia coli, UniProt P0AES4+P0AES6, D82N). Kind of test: Supercoiling inhibition assay, GyrA EcD82N mutant gyrase. Format: biochemical. How it is done: as §1, §2
Test [4] deals with E. coli DNA gyrase GyrA mutant EcD87A (Escherichia coli, UniProt P0AES4+P0AES6, D87A). The test is described as follows: Supercoiling inhibition assay, GyrA EcD87A mutant gyrase. Type of test: biochemical. As to the method: as §1, §2
The target in test [5] is T2, Escherichia coli wt gyrase (Escherichia coli, UniProt P0AES4+P0AES6). Type of test: biochemical. Conditions: 8 mM EDTA, no ATP; disappearance of linear double-strand cleavage. As to the method:
(§3) A total of 500 ng of relaxed pBR322 plasmid was used as a substrate for each 30 μl reaction.
Figure 6.

For test [6], the target named is T1, wild-type E. coli DNA gyrase. Type of test: biochemical. Particulars: purified E. coli DNA gyrase, linear plasmid DNA. As to the method: as §3
A further test relates to ΔTolC E. coli. More on the design: method as in Jeannot et al. In revision in J Med Chem. Conditions: ref Jeannot et al. In revision in J Med Chem; cited from earlier work.
In test [7] the target is T2, Escherichia coli wt gyrase. Type of test: biochemical. Particulars: 25°C, presence vs absence of ATP.
Experimental: The reactions were carried out either in the presence or absence of ATP for both compounds.
The top panels show the results of cleavage assays with various times allowed for the formation of the cleavage complexes as indicated. The experiment was performed in the presence and the absence of ATP as indicated. […] Approximately 400 ng of A2B2Escherichia coli wt gyrase was used in each assay.

These results are taken from publication PMC5934680, “A new class of antibacterials, the imidazopyrazinones, reveal structural transitions involved in DNA gyrase poisoning and mechanisms of resistance” (Nucleic Acids Research, 2018).

With `Cn1cc(-c2ccc(NC(=O)Cc3ccc(Cl)cc3)cc2)n2ccnc2c1=O` [b2], in test [1], half-maximal inhibition (IC50) required 11 µM and the “Resistance of EcS83L mutant enzyme in supercoiling inhibition” value is listed as “less active against EcS83L”. In test [2], the IC50 was 5.2 µM.

`N[C@H]1CCN(c2cc3c(cc2F)n2ncnc2c(=O)n3C2CC2)C1` [t2]: the IC50 is 4 to 20 µM in test [3], 9.5 µM in test [1], 1.7 µM in test [4] and 1.7 µM in test [2]. In test [3] (EcD82N compared to wt), the “Resistance of EcD82N mutant enzyme in supercoiling inhibition” value was “high resistance”. In addition, the “Resistance of EcS83L mutant enzyme in supercoiling inhibition” value in test [1] is “partial resistance”. In test [4] (EcD87A compared to wt), the “Resistance of EcD87A mutant enzyme in supercoiling inhibition” value was “low to no resistance”.

Regarding `N[C@H]1CCN(c2cc3c(cc2F)n2ccnc2c(=O)n3C2CC2)C1` [t1], the IC50 in test [3] was determined as 9.4 µM; in test [1], 3.7 µM; in test [4] it was 0.5 µM; in test [2] it was 0.5 µM. Further, in test [1] (EcS83L vs wild-type), the “Increase in supercoiling IC50 with EcS83L mutant compared to wt” value is about 7 fold. In test [5], the “Resealing of stabilized cleavage by EDTA” value was “slower”. In addition, the “Level of double-stranded cleavage induced” value in test [6] is “comparable to those obtained with ciprofloxacin”. The “Antibacterial activity ranking on ΔTolC E. coli” value in the test with ΔTolC E. coli is “most active tricyclic IPY”. Besides, the “Effect of ATP on rate of appearance of linear DNA (cleavage)” value in test [7] is on record as “greatly stimulated”.

As for `O=C(Cc1ccccc1)Nc1ccc(-c2cn(-c3ccc(O)cc3)c(=O)c3nccn23)cc1` [b1, N-{4-[7-(4-hydroxyphenyl)-8-oxo-7,8-dihydroimidazo[1,2-a]pyrazin-5-yl]phenyl}-2-phenylacetamide], in test [1], half-maximal inhibition (IC50) required 1 µM and the “Resistance of EcS83L mutant enzyme in supercoiling inhibition” value is given as “improved activity toward the EcS83L mutant enzyme compared to the wt”. In test [2], the IC50 came out at 2.6 µM.

Usually IC50 stands for the concentration needed to halve the response being measured.
